Assay results reported in PubChem BioAssay (NCI).
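Five concentrations, 48 hours, 96-well plates. At the GI50, growth is halved. TGI: total growth inhibition.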

Columns and labels:
Assay in all cases: NCI tumour cell line growth inhibition, 48 h
[1] = system: M14 melanoma
[2] = system: T-47D breast
[3] = system: SK-MEL-5 melanoma
[4] = system: UACC-257 melanoma
[5] = system: SK-OV-3 ovarian
[6] = system: MDA-MB-231 breast
[7] = system: NCI-H23 lung
[8] = system: UO-31 renal
[9] = system: DU-145 prostate
[10] = system: MALME-3M melanoma
[11] = system: HL-60(TB) leukemia
[12] = system: SR leukemia
[13] = system: SK-MEL-2 melanoma
[14] = system: HCC-2998 colon
[15] = system: KM12 colon
[16] = system: COLO 205 colon
[17] = system: ACHN renal
[18] = system: PC-3 prostate
[19] = system: HCT-15 colon
[20] = system: K-562 leukemia
[21] = system: TK-10 renal
[22] = system: OVCAR-8 ovarian
[23] = system: RPMI-8226 leukemia
[24] = system: NCI/ADR-RES ovarian
[25] = system: SNB-75 CNS
[26] = system: SNB-19 CNS
[27] = system: CCRF-CEM leukemia
[28] = system: HT29 colon
[29] = system: RXF 393 renal
[30] = system: SW-620 colon
[31] = system: NCI-H226 lung
[32] = system: SF-268 CNS
[33] = system: U251 CNS
[34] = system: 786-0 renal
[35] = system: OVCAR-5 ovarian
[36] = system: HOP-92 NSCLC
[37] = system: IGROV1 ovarian
[38] = system: LOX IMVI melanoma
[39] = system: NCI-H460 lung
[40] = system: HS 578T breast
[41] = system: SF-539 CNS
[42] = system: NCI-H522 lung
[43] = system: SN12C renal
[44] = system: BT-549 breast
[45] = system: MOLT-4 leukemia
[46] = system: SF-295 CNS
[47] = system: SK-MEL-28 melanoma
[48] = system: OVCAR-3 ovarian
[49] = system: HOP-62 NSCLC
[50] = system: MCF7 breast
[51] = system: MDA-MB-435
[52] = system: OVCAR-4 ovarian
[53] = system: HCT-116 colon
[54] = system: A549 NSCLC
[55] = system: A498 renal
[56] = system: UACC-62 melanoma

`O=C1/C(=C/c2ccc(F)cc2)CN(Cc2cn(CCNc3ccnc4cc(Cl)ccc34)nn2)C/C1=C\c1ccc(F)cc1` was tested, and the GI50 [1] was 1920 nM, the TGI [1] was 3740 nM and the GI50 [2] was 1890 nM. It also gave a TGI [2] of 4330 nM, a GI50 [3] of 1700 nM and a TGI [3] of 3060 nM. It also gave a GI50 [4] of 1780 nM, a TGI [4] of 3350 nM and a GI50 [5] of 1600 nM. The TGI [5] was 3020 nM, the GI50 [6] was 1760 nM and the TGI [6] was 3410 nM. The GI50 [7] was 1840 nM, the TGI [7] was 4010 nM and the GI50 [8] was 1370 nM. For the same molecule, the TGI [8] was 2700 nM, the GI50 [9] was 1320 nM and the TGI [9] was 2630 nM. For the same molecule, the GI50 [10] was 1980 nM, the TGI [10] was 3760 nM and the GI50 [11] was 1410 nM. For the same molecule, the TGI [11] was 4970 nM, the GI50 [12] was 333 nM and the TGI [12] was 1660 nM. It also gave a GI50 [13] of 1940 nM, a TGI [13] of 3730 nM and a GI50 [14] of 1190 nM. For the same molecule, the TGI [14] was 2550 nM, the GI50 [15] was 328 nM and the TGI [15] was 1190 nM. The GI50 [16] was 1500 nM, the TGI [16] was 2880 nM and the GI50 [17] was 1680 nM. It also gave a TGI [17] of 3040 nM, a GI50 [18] of 1160 nM and a TGI [18] of 2600 nM. The GI50 [19] was 1400 nM, the TGI [19] was 3210 nM and the GI50 [20] was 301 nM. The TGI [20] was 1580 nM, the GI50 [21] was 1850 nM and the TGI [21] was 3450 nM. The GI50 [22] was 1780 nM, the TGI [22] was 5240 nM and the GI50 [23] was 299 nM. For the same molecule, the TGI [23] was 896 nM, the GI50 [24] was 2760 nM and the TGI [24] was 11300 nM. For the same molecule, the GI50 [25] was 1600 nM, the TGI [25] was 3620 nM and the GI50 [26] was 1570 nM. It also gave a TGI [26] of 2920 nM, a GI50 [27] of 1050 nM and a TGI [27] of 4650 nM. It also gave a GI50 [28] of 680 nM, a TGI [28] of 2090 nM and a GI50 [29] of 1660 nM. It also gave a TGI [29] of 3110 nM, a GI50 [30] of 366 nM and a TGI [30] of 1390 nM. The GI50 [31] was 1910 nM, the TGI [31] was 4240 nM and the GI50 [32] was 1520 nM. For the same molecule, the TGI [32] was 2910 nM, the GI50 [33] was 1330 nM and the TGI [33] was 2680 nM. For the same molecule, the GI50 [34] was 1660 nM, the TGI [34] was 3040 nM and the GI50 [35] was 1920 nM. It also gave a TGI [35] of 3710 nM, a GI50 [36] of 1340 nM and a TGI [36] of 3050 nM. It also gave a GI50 [37] of 1500 nM, a TGI [37] of 2930 nM and a GI50 [38] of 474 nM. It also gave a TGI [38] of 1720 nM, a GI50 [39] of 1180 nM and a TGI [39] of 2570 nM. For the same molecule, the GI50 [40] was 2330 nM, the TGI [40] was 7560 nM and the GI50 [41] was 1830 nM. For the same molecule, the TGI [41] was 3270 nM, the GI50 [42] was 1670 nM and the TGI [42] was 3160 nM. For the same molecule, the GI50 [43] was 1580 nM, the TGI [43] was 3090 nM and the GI50 [44] was 1850 nM. For the same molecule, the TGI [44] was 3260 nM, the GI50 [45] was 2380 nM and the TGI [45] was 7080 nM. It also gave a GI50 [46] of 1940 nM, a TGI [46] of 3650 nM and a GI50 [47] of 1740 nM. For the same molecule, the TGI [47] was 3130 nM, the GI50 [48] was 1240 nM and the TGI [48] was 2500 nM. The GI50 [49] was 2070 nM, the TGI [49] was 3760 nM and the GI50 [50] was 400 nM. For the same molecule, the TGI [50] was 1750 nM, the GI50 [51] was 1410 nM and the TGI [51] was 2730 nM. It also gave a GI50 [52] of 1810 nM, a TGI [52] of 8750 nM and a GI50 [53] of 258 nM. For the same molecule, the TGI [53] was 721 nM, the GI50 [54] was 1880 nM and the TGI [54] was 4230 nM. The GI50 [55] was 1110 nM, the TGI [55] was 2350 nM and the GI50 [56] was 1560 nM. For the same molecule, the TGI [56] was 2950 nM.
